One block for each compound: values may come before it.
Experiments:
Carbonic anhydrase 9 = Carbonic anhydrase 9 (Homo sapiens, UniProt Q16790)
Carbonic anhydrase 12 = Carbonic anhydrase 12 (Homo sapiens, UniProt O43570)
Carbonic anhydrase 13 = Carbonic anhydrase 13 (Mus musculus, UniProt Q9D6N1)
Carbonic anhydrase 15 = target: T1, Carbonic anhydrase 15 (Mus musculus, UniProt Q99N23)
T1 sequence (Q99N23 whole entry): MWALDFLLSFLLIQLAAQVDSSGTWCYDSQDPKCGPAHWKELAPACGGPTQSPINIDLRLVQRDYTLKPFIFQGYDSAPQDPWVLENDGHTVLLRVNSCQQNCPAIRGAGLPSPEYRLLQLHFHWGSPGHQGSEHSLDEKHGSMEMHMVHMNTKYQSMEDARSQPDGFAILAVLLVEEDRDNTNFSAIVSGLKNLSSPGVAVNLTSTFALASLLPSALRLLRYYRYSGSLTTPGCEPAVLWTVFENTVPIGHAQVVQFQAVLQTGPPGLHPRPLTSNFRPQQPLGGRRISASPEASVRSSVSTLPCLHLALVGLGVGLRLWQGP

Carbonic anhydrase 1 = Carbonic anhydrase 1 (Homo sapiens, UniProt P00915)
Description: Inhibition of human carbonic anhydrase 1 by stopped flow CO2 hydration assay

Carbonic anhydrase 3 = Carbonic anhydrase 3 (Homo sapiens, UniProt P07451)
Carbonic anhydrase 4 = Carbonic anhydrase 4 (Homo sapiens, UniProt P22748)
[1] = target: Carbonic anhydrase 5A, mitochondrial (Homo sapiens, UniProt P35218)
[2] = target: Carbonic anhydrase 5B, mitochondrial (Homo sapiens, UniProt Q9Y2D0)
Carbonic anhydrase 6 = Carbonic anhydrase 6 (Homo sapiens, UniProt P23280)
Carbonic anhydrase 14 = Carbonic anhydrase 14 (Homo sapiens, UniProt Q9ULX7)
Carbonic anhydrase 2 = Carbonic anhydrase 2 (Homo sapiens, UniProt P00918)
Carbonic anhydrase 7 = Carbonic anhydrase 7 (Homo sapiens, UniProt P43166)
Chain of Carbonic anhydrase 7 (P43166 whole entry): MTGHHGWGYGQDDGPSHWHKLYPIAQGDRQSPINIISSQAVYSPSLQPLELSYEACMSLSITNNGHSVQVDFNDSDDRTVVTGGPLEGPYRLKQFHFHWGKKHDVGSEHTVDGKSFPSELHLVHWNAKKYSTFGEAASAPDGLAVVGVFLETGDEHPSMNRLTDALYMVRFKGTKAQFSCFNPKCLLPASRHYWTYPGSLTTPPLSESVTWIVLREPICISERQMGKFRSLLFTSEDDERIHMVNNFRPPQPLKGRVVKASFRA

Chain of Carbonic anhydrase 12 (O43570 whole entry): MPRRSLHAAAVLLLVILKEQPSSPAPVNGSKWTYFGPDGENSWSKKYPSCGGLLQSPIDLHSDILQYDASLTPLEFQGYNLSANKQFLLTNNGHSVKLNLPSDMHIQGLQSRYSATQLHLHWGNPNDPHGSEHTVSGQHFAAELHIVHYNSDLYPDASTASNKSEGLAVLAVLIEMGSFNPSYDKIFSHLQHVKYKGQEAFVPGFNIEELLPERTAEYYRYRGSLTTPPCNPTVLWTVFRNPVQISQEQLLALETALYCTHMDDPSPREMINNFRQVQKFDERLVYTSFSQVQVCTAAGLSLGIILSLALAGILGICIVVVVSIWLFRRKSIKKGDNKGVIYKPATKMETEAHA
Chain of Carbonic anhydrase 13 (Q9D6N1 whole entry): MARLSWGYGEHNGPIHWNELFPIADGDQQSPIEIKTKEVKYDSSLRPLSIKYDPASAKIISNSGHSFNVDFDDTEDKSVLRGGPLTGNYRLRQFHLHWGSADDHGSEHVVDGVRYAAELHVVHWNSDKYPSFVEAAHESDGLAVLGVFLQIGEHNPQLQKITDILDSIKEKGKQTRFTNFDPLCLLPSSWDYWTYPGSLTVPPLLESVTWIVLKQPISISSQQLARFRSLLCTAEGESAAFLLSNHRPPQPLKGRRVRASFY
Chain of Carbonic anhydrase 6 (P23280 whole entry): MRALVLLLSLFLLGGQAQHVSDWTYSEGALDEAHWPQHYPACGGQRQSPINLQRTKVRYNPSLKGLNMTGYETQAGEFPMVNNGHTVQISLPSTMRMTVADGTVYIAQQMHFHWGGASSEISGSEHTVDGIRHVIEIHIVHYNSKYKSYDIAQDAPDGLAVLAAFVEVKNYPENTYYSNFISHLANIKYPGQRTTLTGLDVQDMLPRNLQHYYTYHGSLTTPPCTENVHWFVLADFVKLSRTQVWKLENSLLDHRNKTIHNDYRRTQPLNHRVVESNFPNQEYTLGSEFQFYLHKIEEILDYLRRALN
Chain of Carbonic anhydrase 14 (Q9ULX7 whole entry): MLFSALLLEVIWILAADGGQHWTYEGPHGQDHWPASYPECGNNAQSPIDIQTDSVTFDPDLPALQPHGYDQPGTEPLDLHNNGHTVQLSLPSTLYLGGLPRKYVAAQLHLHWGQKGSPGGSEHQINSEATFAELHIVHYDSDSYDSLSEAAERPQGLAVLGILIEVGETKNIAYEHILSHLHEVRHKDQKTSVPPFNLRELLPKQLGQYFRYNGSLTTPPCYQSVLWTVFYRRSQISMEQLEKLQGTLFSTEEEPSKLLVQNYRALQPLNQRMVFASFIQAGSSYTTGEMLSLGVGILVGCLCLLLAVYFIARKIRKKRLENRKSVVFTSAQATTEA
Chain of Carbonic anhydrase 3 (P07451 whole entry): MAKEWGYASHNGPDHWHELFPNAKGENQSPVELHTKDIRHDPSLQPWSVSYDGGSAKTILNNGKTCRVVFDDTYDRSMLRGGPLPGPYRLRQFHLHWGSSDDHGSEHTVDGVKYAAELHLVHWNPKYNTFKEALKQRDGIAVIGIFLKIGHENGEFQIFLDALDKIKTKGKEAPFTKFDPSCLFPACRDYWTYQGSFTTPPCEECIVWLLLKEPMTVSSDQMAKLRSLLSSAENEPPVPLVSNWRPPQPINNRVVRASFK
Chain of Carbonic anhydrase 5B, mitochondrial (Q9Y2D0 whole entry): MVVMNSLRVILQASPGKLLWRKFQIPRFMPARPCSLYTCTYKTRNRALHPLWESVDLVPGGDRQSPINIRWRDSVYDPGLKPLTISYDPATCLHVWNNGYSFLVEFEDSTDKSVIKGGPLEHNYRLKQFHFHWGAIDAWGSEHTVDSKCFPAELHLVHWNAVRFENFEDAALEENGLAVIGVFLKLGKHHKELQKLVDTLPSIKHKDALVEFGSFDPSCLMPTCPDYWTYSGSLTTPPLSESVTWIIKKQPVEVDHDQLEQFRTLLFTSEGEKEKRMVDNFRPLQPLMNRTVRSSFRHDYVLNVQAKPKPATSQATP
Chain of Carbonic anhydrase 1 (P00915 whole entry): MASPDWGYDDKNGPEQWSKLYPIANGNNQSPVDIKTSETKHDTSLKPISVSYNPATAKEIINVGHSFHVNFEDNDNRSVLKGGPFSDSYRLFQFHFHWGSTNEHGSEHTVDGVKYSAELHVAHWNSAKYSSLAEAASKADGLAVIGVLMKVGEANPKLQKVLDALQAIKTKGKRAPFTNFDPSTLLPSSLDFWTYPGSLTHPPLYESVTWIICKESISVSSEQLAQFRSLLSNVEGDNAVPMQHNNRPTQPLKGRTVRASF
Chain of Carbonic anhydrase 5A, mitochondrial (P35218 whole entry): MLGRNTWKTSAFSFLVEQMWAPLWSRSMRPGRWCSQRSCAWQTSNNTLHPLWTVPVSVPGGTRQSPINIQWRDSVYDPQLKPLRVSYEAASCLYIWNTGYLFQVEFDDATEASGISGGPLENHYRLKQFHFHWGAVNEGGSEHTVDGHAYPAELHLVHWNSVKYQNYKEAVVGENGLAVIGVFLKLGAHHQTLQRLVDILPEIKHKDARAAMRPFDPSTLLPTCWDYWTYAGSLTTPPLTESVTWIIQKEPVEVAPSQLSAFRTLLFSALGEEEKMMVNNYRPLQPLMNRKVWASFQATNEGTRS
Chain of Carbonic anhydrase 4 (P22748 whole entry): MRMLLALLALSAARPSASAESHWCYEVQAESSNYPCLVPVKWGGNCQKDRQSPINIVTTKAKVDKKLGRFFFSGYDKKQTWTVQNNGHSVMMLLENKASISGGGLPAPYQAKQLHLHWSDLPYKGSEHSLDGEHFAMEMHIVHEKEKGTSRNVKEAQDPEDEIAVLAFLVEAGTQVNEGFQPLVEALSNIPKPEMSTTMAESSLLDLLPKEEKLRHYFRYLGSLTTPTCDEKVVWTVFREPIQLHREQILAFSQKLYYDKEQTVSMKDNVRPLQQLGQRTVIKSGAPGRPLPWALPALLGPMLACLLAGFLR

Ki (Carbonic anhydrase 9): 41.9 nM | Ki (Carbonic anhydrase 12): 302 nM | Ki (Carbonic anhydrase 13): 4.67 µM | Ki (Carbonic anhydrase 15): 79 nM | Ki (Carbonic anhydrase 1): 29.3 nM | Ki (Carbonic anhydrase 3): 443 nM | Ki (Carbonic anhydrase 4): 446 nM | Ki [1]: 5.49 µM | Ki [2]: 14.9 µM | Ki (Carbonic anhydrase 6): 461 nM | Ki (Carbonic anhydrase 14): 223 nM
Structure (SMILES): Cc1cn(-c2cc(NC(=O)c3ccc(C)c(Nc4nccc(-c5cccnc5)n4)c3)cc(C(F)(F)F)c2)cn1 [NILOTINIB]

Structure (SMILES): C#CCNc1nc(Nc2ccc(S(N)(=O)=O)cc2)ncc1Br
IC50 (Carbonic anhydrase 2): 331 nM

IC50 (Carbonic anhydrase 9): 54.5 µM | IC50 (Carbonic anhydrase 12): 48.6 µM | IC50 (Carbonic anhydrase 13): 790 nM | IC50 (Carbonic anhydrase 15): 93.1 µM | IC50 (Carbonic anhydrase 1): 78 nM | IC50 (Carbonic anhydrase 3): > 10 nM | IC50 [1]: 9.6 µM | IC50 [2]: 17.7 µM | IC50 (Carbonic anhydrase 6): 35.7 µM | IC50 (Carbonic anhydrase 7): 27.9 µM | IC50 (Carbonic anhydrase 14): 780 nM
Structure (SMILES): COc1cc(O)c(/C=C\C(=O)O)cc1[C@@H](O)CC(C)C
